Measured values taken from the NIST ThermoML archive (doi:10.1021/je101008y).
± gives the expanded uncertainty stated by the source.

Test: activity coefficient (dimensionless); of the first substance listed, at infinite dilution; xn = mol fraction of the nth substance listed
Conditions: Liquid, Chromatography, x1 = 0

Row | SMILES | activity coefficient (318.15 K) | activity coefficient (328.15 K) | activity coefficient (338.15 K) | activity coefficient (348.15 K) | activity coefficient (358.15 K) | activity coefficient (318.2 K) | activity coefficient (328.2 K) | activity coefficient (338.2 K) | activity coefficient (348.2 K) | activity coefficient (358.2 K)
1 | Cc1ccccc1C [1,2-dimethylbenzene] + CCCC[N+]1(C)CCCCC1.N#C[S-] | 4.15 ± 0.28 | 4.18 ± 0.28 | 4.21 ± 0.29 | 4.24 ± 0.29 | 4.26 ± 0.29 | – | – | – | – | –
2 | Cc1cccc(C)c1 [1,3-dimethylbenzene] + CCCC[N+]1(C)CCCCC1.N#C[S-] | 5.23 ± 0.36 | 5.25 ± 0.36 | 5.26 ± 0.36 | 5.27 ± 0.36 | 5.28 ± 0.36 | – | – | – | – | –
3 | Cc1ccc(C)cc1 [1,4-dimethylbenzene] + CCCC[N+]1(C)CCCCC1.N#C[S-] | 5.01 ± 0.34 | 5.04 ± 0.34 | 5.07 ± 0.35 | 5.1 ± 0.35 | 5.13 ± 0.35 | – | – | – | – | –
4 | C=CCCCCC [1-heptene] + CCCC[N+]1(C)CCCCC1.N#C[S-] | 60.3 ± 4.1 | 55.5 ± 3.8 | 51.7 ± 3.5 | 47.9 ± 3.3 | 45.7 ± 3.1 | – | – | – | – | –
5 | C#CCCCCC [1-heptyne] + CCCC[N+]1(C)CCCCC1.N#C[S-] | 9.17 ± 0.63 | 9.19 ± 0.63 | 9.2 ± 0.6 | 9.23 ± 0.63 | 9.28 ± 0.63 | – | – | – | – | –
6 | C#CCCCC [1-hexyne] + CCCC[N+]1(C)CCCCC1.N#C[S-] | 6.07 ± 0.41 | 6.11 ± 0.42 | 6.16 ± 0.42 | 6.19 ± 0.42 | 6.22 ± 0.42 | – | – | – | – | –
7 | C#CCCCCCC [1-octyne] + CCCC[N+]1(C)CCCCC1.N#C[S-] | 13.6 ± 0.9 | 13.6 ± 0.9 | 13.6 ± 0.9 | 13.7 ± 0.9 | 13.7 ± 0.9 | – | – | – | – | –
8 | COC(C)(C)C [2-methoxy-2-methylpropane] + CCCC[N+]1(C)CCCCC1.N#C[S-] | – | – | – | – | – | 13.1 ± 0.9 | 12.7 ± 0.9 | 12.4 ± 0.8 | 12 ± 0.8 | 11.8 ± 0.8
9 | CC(C)=O [acetone] + CCCC[N+]1(C)CCCCC1.N#C[S-] | – | – | – | – | – | 1.52 ± 0.1 | 1.52 ± 0.1 | 1.53 ± 0.1 | 1.54 ± 0.1 | 1.55 ± 0.1
10 | c1ccccc1 [benzene] + CCCC[N+]1(C)CCCCC1.N#C[S-] | 1.9 ± 0.13 | 1.92 ± 0.13 | 1.95 ± 0.13 | 1.97 ± 0.13 | 1.99 ± 0.14 | – | – | – | – | –
11 | C1CCCCCC1 [cycloheptane] + CCCC[N+]1(C)CCCCC1.N#C[S-] | 44.3 ± 3 | 41.5 ± 2.8 | 37.4 ± 2.6 | 34.6 ± 2.4 | 32.7 ± 2.2 | – | – | – | – | –
12 | C1CCCCC1 [cyclohexane] + CCCC[N+]1(C)CCCCC1.N#C[S-] | 39.8 ± 2.7 | 35.9 ± 2.5 | 32.4 ± 2.2 | 29.4 ± 2 | 27.5 ± 1.9 | – | – | – | – | –
13 | C1CCCCCCC1 [cyclooctane] + CCCC[N+]1(C)CCCCC1.N#C[S-] | 60 ± 4 | 54 ± 4 | 49.1 ± 3.4 | 44.7 ± 3.1 | 42.1 ± 2.9 | – | – | – | – | –
14 | C1CCCC1 [cyclopentane] + CCCC[N+]1(C)CCCCC1.N#C[S-] | 27.5 ± 1.9 | 24.2 ± 1.7 | 22.1 ± 1.5 | 19.9 ± 1.4 | 18.9 ± 1.3 | – | – | – | – | –
15 | CCCCCCCCCC [decane] + CCCC[N+]1(C)CCCCC1.N#C[S-] | 487 ± 34 | 433 ± 30 | 390 ± 27 | 342 ± 24 | 311 ± 21 | – | – | – | – | –
16 | CCOCC [diethyl ether] + CCCC[N+]1(C)CCCCC1.N#C[S-] | – | – | – | – | – | 12 ± 0.8 | 11.6 ± 0.8 | 11.1 ± 0.8 | 10.8 ± 0.7 | 10.5 ± 0.7

Row | SMILES | activity coefficient (318.15 K) | activity coefficient (328.15 K) | activity coefficient (338.15 K) | activity coefficient (348.15 K) | activity coefficient (358.15 K) | activity coefficient (318.2 K) | activity coefficient (328.2 K) | activity coefficient (338.2 K) | activity coefficient (348.2 K) | activity coefficient (358.2 K)
17 | CCCOCCC [dipropyl ether] + CCCC[N+]1(C)CCCCC1.N#C[S-] | – | – | – | – | – | 35.1 ± 2.4 | 32.9 ± 2.3 | 31 ± 2.1 | 29.3 ± 2 | 28 ± 1.9
18 | CCO [ethanol] + CCCC[N+]1(C)CCCCC1.N#C[S-] | 0.647 ± 0.044 | 0.637 ± 0.044 | 0.627 ± 0.043 | 0.618 ± 0.043 | 0.612 ± 0.043 | – | – | – | – | –
19 | CCc1ccccc1 [ethylbenzene] + CCCC[N+]1(C)CCCCC1.N#C[S-] | 5.18 ± 0.35 | 5.18 ± 0.35 | 5.16 ± 0.35 | 5.15 ± 0.35 | 5.14 ± 0.35 | – | – | – | – | –
20 | CCCCCCC [heptane] + CCCC[N+]1(C)CCCCC1.N#C[S-] | 170 ± 12 | 142 ± 10 | 127 ± 9 | 111 ± 8 | 102 ± 7 | – | – | – | – | –
21 | C=CCCCC [hex-1-ene] + CCCC[N+]1(C)CCCCC1.N#C[S-] | 41.3 ± 2.8 | 37 ± 3 | 34.6 ± 2.4 | 32 ± 2 | 30.1 ± 2.1 | – | – | – | – | –
22 | CCCCCC [hexane] + CCCC[N+]1(C)CCCCC1.N#C[S-] | 124 ± 9 | 104 ± 7 | 89.3 ± 6.1 | 78.5 ± 5.4 | 68.5 ± 4.7 | – | – | – | – | –
23 | CO [methanol] + CCCC[N+]1(C)CCCCC1.N#C[S-] | 0.366 ± 0.033 | 0.368 ± 0.033 | 0.37 ± 0.033 | 0.371 ± 0.033 | 0.373 ± 0.033 | – | – | – | – | –
24 | CCCCCCCCC [nonane] + CCCC[N+]1(C)CCCCC1.N#C[S-] | 333 ± 23 | 293 ± 20 | 267 ± 18 | 234 ± 16 | 214 ± 15 | – | – | – | – | –
25 | C=CCCCCCC [oct-1-ene] + CCCC[N+]1(C)CCCCC1.N#C[S-] | 90.6 ± 6.2 | 83.7 ± 5.7 | 77.4 ± 5.3 | 71.5 ± 4.9 | 67.4 ± 4.6 | – | – | – | – | –
26 | CCCCCCCC [octane] + CCCC[N+]1(C)CCCCC1.N#C[S-] | 236 ± 16 | 206 ± 14 | 185 ± 13 | 161 ± 11 | 150 ± 10 | – | – | – | – | –
27 | CCCC(C)=O [pentan-2-one] + CCCC[N+]1(C)CCCCC1.N#C[S-] | – | – | – | – | – | 3.07 ± 0.21 | 3.08 ± 0.21 | 3.09 ± 0.21 | 3.11 ± 0.21 | 3.12 ± 0.21
28 | CCC(=O)CC [pentan-3-one] + CCCC[N+]1(C)CCCCC1.N#C[S-] | – | – | – | – | – | 3.08 ± 0.21 | 3.09 ± 0.21 | 3.11 ± 0.21 | 3.12 ± 0.21 | 3.13 ± 0.21
29 | C1CCOC1 [tetrahydrofuran] + CCCC[N+]1(C)CCCCC1.N#C[S-] | 2.28 ± 0.16 | 2.31 ± 0.16 | 2.34 ± 0.16 | 2.36 ± 0.16 | 2.38 ± 0.16 | – | – | – | – | –
30 | c1ccsc1 [thiophene] + CCCC[N+]1(C)CCCCC1.N#C[S-] | 1.1 ± 0.07 | 1.13 ± 0.07 | 1.17 ± 0.07 | 1.2 ± 0.08 | 1.23 ± 0.08 | – | – | – | – | –
31 | Cc1ccccc1 [toluene] + CCCC[N+]1(C)CCCCC1.N#C[S-] | 3.14 ± 0.21 | 3.16 ± 0.22 | 3.19 ± 0.22 | 3.21 ± 0.22 | 3.23 ± 0.22 | – | – | – | – | –
32 | O [water] + CCCC[N+]1(C)CCCCC1.N#C[S-] | – | 0.332 ± 0.032 | 0.337 ± 0.032 | 0.342 ± 0.032 | 0.348 ± 0.032 | – | – | – | – | –
